This data set can be described thus: Emulsion formation of CBD powder in water with emulsifier or co-solvent. The class given is physicochemical. To be noted: 200 mg CBD powder, 40 mL water, shaken five minutes. How it is done: A study was conducted with several different emulsifiers or co-solvents added to water and CBD powder.
In a first experiment, five 50 mL centrifuge tubes were each filled with 40 mL of water and 200 mg of CBD powder. Then, increasing amounts of PEG-400 (65 mg, 130 mg, 195 mg, 260 mg, and 650 mg) were added respectively to each centrifuge tube, which were then placed on a tabletop shaker and mechanically shaken on high for five minutes. […] No emulsion, however, was immediately formed after mixing.
In a second experiment, four 50 mL centrifuge tubes were each filled with 40 mL of water and 200 mg of CBD powder. Then, increasing amounts of TWEEN 80 (160 mg, 320 mg, 800 mg, and 1600 mg) were added respectively to each centrifuge tube, which were then placed on a tabletop shaker and mechanically shaken on high for five minutes. […] Further, CBD powder was still floating around in each tube.
In a third experiment, four 50 mL centrifuge tubes were each filled with 40 mL of water and 200 mg of CBD powder. Then, increasing amounts of sodium dodecyl sulfate (SDS) (10 mg, 25 mg, 50 mg, and 100 mg) were added respectively to each centrifuge tube, which were then placed on a tabletop shaker and mechanically shaken on high for five minutes. […] Further, CBD residue was observed on the bottom of each tube.
Finally, in a fourth experiment, four 50 mL centrifuge tubes were each filled with 40 mL of water and 200 mg of CBD powder. Then, increasing amounts of glycerol monostearate (GMS) (10 mg, 25 mg, 50 mg, and 100 mg) were added respectively to each centrifuge tube, which were then placed on a tabletop shaker and mechanically shaken on high for five minutes. […] Further, CBD residue was observed on the bottom and sides of each tube.

Take `C=C(C)[C@@H]1CCC(C)=C[C@H]1c1c(O)cc(CCCCC)cc1O` [CBD powder, cannabidiol]: the emulsion formation result (GMS 10-100 mg) is “no emulsion was formed in any tube”, the emulsion formation result (PEG-400 65-650 mg) is listed as “No emulsion”, the emulsion formation entry (SDS 10-100 mg) is “no emulsion was formed in any tube” and the emulsion formation entry (TWEEN 80 160-1600 mg) was “no emulsion was formed in any tube”.

For the origin of these results see patent US20230201285A1, “GRANULAR C[…] WATER DISPERSIBLE CANNABINOIDS AND METHODS OF MAKING THE SAME” (priority 2021, published 2023).
